According to ChEMBL document CHEMBL3758090, “Investigation of α-conotoxin unbinding using umbrella sampling” (Bioorg Med Chem Lett, 2016):

Target: T1, Soluble acetylcholine receptor (Aplysia californica, UniProt Q8WSF8)
T1 sequence (Q8WSF8 whole entry): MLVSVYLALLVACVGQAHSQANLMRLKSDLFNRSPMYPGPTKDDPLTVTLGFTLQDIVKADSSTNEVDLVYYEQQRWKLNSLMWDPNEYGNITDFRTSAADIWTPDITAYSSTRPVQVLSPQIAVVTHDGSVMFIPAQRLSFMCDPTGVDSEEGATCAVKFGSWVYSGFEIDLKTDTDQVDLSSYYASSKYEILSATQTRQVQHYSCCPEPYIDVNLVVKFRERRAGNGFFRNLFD
Assay: Displacement [125I]alpha-bungarotoxin from untagged Aplysia californica AChBP expressed in Sf9 cells by competitive binding assay

Work on C[C@@H]1NC(=O)[C@@H]2CSSC[C@H](NC(=O)CN)C(=O)N[C@@H](CSSC[C@@H](C(=O)O)NC(=O)[C@H](CCCNC(=N)N)NC(=O)[C@H](Cc3c[nH]c4ccccc34)NC1=O)C(=O)N[C@@H](CO)C(=O)N[C@@H](CC(=O)O)C(=O)N1CCC[C@H]1C(=O)N[C@@H](CCCNC(=N)N)C(=O)N2 yielded an IC50 of 33 nM.
